Results on 30 molecules are retold here after EP1247803A2, “Indolinone compounds suitable for modulation of protein kinases” (Sugen, Inc., priority 1996, dated 1998).

The target in one experiment is PDGF-R (Homo sapiens, UniProt P09619). Description: PDGF-R ELISA. Type of experiment: cell-based. The text has this: A PDGF-R ELISA is described in International Patent Publication No. WO 96/40116, published December 19, 1996 by Tang et al.
(In general: An ELISA detects its analyte on a solid surface through an enzyme-linked reagent.)

A further experiment addresses T1, EGFR (Homo sapiens, UniProt P00533).
T1 construct: Add 7 ug A431 cell lysate per well (EGFR source); endogenous in cells; host or cells: A431
The experiment can be described thus: EGFR ELISA assay (in vitro kinase activity, EGFR captured from A431 cell lysate). Type of experiment: biochemical. More on the design: concentration or dose not given beside the values. A digest of the protocol:
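Receptor autophosphorylation was read by ELISA: anti-phosphotyrosine serum and an HRP-linked secondary with ABTS substrate, absorbance at 410 nm (reference 630 nm). The reaction ran 5 min with 3 µM ATP and 5 mM MnCl2 and was quenched by 20 mM EDTA. Compounds were first incubated 30 min with antibody-captured EGFR from A431 cell lysate.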

Sequence of PDGF-R (P09619 33-1106, species assumed): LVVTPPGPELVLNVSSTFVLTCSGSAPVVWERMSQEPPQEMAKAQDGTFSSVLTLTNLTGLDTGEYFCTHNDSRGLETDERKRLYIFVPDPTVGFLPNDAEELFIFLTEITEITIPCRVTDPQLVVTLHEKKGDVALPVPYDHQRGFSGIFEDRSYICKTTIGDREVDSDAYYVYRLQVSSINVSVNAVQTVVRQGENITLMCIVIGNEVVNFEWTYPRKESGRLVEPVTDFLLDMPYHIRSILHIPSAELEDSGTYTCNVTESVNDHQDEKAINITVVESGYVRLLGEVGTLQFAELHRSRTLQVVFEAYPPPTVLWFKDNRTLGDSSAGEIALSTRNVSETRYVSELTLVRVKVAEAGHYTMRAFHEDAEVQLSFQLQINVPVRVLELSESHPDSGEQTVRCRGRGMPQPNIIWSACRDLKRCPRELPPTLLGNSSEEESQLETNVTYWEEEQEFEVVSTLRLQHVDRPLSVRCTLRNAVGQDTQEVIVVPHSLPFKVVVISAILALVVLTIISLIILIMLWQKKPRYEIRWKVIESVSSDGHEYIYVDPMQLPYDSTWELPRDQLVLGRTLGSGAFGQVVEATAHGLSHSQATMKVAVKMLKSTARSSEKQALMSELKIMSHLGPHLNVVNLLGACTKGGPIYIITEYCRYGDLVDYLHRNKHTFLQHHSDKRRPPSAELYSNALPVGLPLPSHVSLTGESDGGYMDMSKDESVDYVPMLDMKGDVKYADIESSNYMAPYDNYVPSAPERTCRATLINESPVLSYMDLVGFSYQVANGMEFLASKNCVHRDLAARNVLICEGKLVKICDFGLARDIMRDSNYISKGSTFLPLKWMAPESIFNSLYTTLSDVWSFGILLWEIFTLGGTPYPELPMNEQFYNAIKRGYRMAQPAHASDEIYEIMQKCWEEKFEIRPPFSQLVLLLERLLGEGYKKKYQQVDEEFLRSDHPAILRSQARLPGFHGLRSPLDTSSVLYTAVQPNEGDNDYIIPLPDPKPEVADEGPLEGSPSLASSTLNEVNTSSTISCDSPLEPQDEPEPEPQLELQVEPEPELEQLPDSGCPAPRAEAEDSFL
T1 sequence (P00533 25-1210): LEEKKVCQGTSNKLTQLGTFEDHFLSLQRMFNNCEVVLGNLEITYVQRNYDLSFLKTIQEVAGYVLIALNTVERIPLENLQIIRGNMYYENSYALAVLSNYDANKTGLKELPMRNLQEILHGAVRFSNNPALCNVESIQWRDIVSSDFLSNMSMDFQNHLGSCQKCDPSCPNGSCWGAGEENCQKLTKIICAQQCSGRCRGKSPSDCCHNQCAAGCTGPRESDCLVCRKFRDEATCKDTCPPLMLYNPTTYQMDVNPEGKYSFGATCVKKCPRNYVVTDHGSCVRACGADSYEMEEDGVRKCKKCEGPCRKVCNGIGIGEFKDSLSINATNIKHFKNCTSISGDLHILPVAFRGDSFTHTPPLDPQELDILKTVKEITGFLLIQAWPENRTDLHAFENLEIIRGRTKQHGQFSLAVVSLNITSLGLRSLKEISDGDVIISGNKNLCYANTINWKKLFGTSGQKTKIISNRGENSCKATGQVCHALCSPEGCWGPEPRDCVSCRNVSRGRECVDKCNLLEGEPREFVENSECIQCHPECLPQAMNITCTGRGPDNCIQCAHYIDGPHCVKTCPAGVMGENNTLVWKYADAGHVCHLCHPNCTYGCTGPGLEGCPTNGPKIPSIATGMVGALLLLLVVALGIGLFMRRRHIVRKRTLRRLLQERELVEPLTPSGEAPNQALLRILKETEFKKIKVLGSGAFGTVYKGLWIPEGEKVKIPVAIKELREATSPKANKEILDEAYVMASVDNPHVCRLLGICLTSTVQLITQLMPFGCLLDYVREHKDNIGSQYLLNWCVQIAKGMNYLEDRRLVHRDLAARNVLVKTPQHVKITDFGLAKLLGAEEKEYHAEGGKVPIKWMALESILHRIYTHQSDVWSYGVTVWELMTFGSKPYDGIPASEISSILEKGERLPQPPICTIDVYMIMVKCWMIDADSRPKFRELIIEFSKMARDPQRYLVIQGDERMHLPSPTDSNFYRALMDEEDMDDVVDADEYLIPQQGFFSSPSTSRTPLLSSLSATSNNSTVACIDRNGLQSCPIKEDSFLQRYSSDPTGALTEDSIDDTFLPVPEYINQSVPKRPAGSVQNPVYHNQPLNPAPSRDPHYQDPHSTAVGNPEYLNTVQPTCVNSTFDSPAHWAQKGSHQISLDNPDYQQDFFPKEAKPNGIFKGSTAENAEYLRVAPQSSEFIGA

For the molecule `O=C1Nc2ccc(I)cc2C1=Cc1cc(Cl)ccc1O` [10734/B04], the “PDGF Kinase %Inhibition” value at PDGF-R was found to be 14.4%. The “Biochem EGFR %Inhibition” value at EGFR turned out to be 38.7%.
The like results for `CCN(CC)c1ccc(C=C2C(=O)Nc3ccc(I)cc32)c(O)c1` [10734/B05] were, in that order, 56.3% and 17.8%.
On the same counts, the results for `O=C1Nc2ccc(I)cc2C1=Cc1ccc([N+](=O)[O-])cc1` [10734/B06] are 0.2% and 54.0%.
The like results for `O=C1Nc2ccc(I)cc2C1=Cc1cc(Br)cc(Br)c1O` [10734/B07] were, in that order, 18.8% and 65.5%.
With `O=C1Nc2ccc(I)cc2C1=Cc1cccc(F)c1O` [10734/B08], the “PDGF Kinase %Inhibition” value on PDGF-R is on record as -2.4%. Besides, at EGFR, the “Biochem EGFR %Inhibition” value is on record as 19.3%.
On the same counts, the results for `O=C1Nc2ccc(I)cc2C1=Cc1ccc(O)c(Br)c1` [10734/B09] are 12.6% and 34.9%.
The like results for `CC(C)(C)c1ccc(C=C2C(=O)Nc3ccc(I)cc32)cc1` [10734/B10] were, in that order, 7.7% and 60.7%.
On the same counts, the results for `O=C1Nc2ccc(I)cc2C1=Cc1ccc(Br)s1` [10734/B11] are -5.5% and 50.9%.
As for `CCOc1cccc(C=C2C(=O)Nc3ccc(Br)c(C)c32)c1O` [10734/C02], the “PDGF Kinase %Inhibition” value at PDGF-R amounted to 36.0%. Moreover, the “Biochem EGFR %Inhibition” value at EGFR is given as -6.7%.
On the same counts, the results for `Cc1c(Br)ccc2c1C(=Cc1cc(Cl)cc(Cl)c1O)C(=O)N2` [10734/C03] are 24.5% and 48.6%.
The like results for `Cc1c(Br)ccc2c1C(=Cc1cc(Cl)ccc1O)C(=O)N2` [10734/C04] were, in that order, 24.5% and 38.1%.
The like results for `CCN(CC)c1ccc(C=C2C(=O)Nc3ccc(Br)c(C)c32)c(O)c1` [10734/C05] were, in that order, 3.8% and 9.3%.
As for `Cc1c(Br)ccc2c1C(=Cc1ccc([N+](=O)[O-])cc1)C(=O)N2` [10734/C06], on PDGF-R, the “PDGF Kinase %Inhibition” value is -0.2%. For the same molecule, at EGFR, the “Biochem EGFR %Inhibition” value was found to be 18.4%.
On the same counts, the results for `Cc1c(Br)ccc2c1C(=Cc1cc(Br)cc(Br)c1O)C(=O)N2` [10734/C07] are 32.0% and 41.0%.
On the same counts, the results for `Cc1c(Br)ccc2c1C(=Cc1cccc(F)c1O)C(=O)N2` [10734/C08] are 5.5% and 35.1%.
The like results for `Cc1c(Br)ccc2c1C(=Cc1ccc(O)c(Br)c1)C(=O)N2` [10734/C09] were, in that order, 11.3% and 36.2%.
As to `Cc1c(Br)ccc2c1C(=Cc1ccc(C(C)(C)C)cc1)C(=O)N2` [10734/C10], at PDGF-R, the “PDGF Kinase %Inhibition” value is on record as 17.4%. Also, the “Biochem EGFR %Inhibition” value at EGFR turned out to be 24.4%.
The like results for `Cc1c(Br)ccc2c1C(=Cc1ccc(Br)s1)C(=O)N2` [10734/C11] were, in that order, 9.1% and 18.0%.
The like results for `CCOc1cccc(C=C2C(=O)Nc3ccc(S(=O)(=O)NC)cc32)c1O` [10734/D02] were, in that order, 6.4% and 5.2%.
On the same counts, the results for `CNS(=O)(=O)c1ccc2c(c1)C(=Cc1cc(Cl)cc(Cl)c1O)C(=O)N2` [10734/D03] are 24.1% and 19.6%.
`CNS(=O)(=O)c1ccc2c(c1)C(=Cc1cc(Cl)ccc1O)C(=O)N2` [10734/D04]: the “PDGF Kinase %Inhibition” value at PDGF-R is 13.5%. In addition, the “Biochem EGFR %Inhibition” value on EGFR was -10.7%.
For the molecule `CCN(CC)c1ccc(C=C2C(=O)Nc3ccc(S(=O)(=O)NC)cc32)c(O)c1` [10734/D05], the “PDGF Kinase %Inhibition” value on PDGF-R is reported as 8.2%. Also, the “Biochem EGFR %Inhibition” value at EGFR is -9.6%.
For `CNS(=O)(=O)c1ccc2c(c1)C(=Cc1ccc([N+](=O)[O-])cc1)C(=O)N2` [10734/D06], the “PDGF Kinase %Inhibition” value at PDGF-R is given as -9.1%. In addition, on EGFR, the “Biochem EGFR %Inhibition” value is reported as 1.3%.
The like results for `CNS(=O)(=O)c1ccc2c(c1)C(=Cc1cc(Br)cc(Br)c1O)C(=O)N2` [10734/D07] were, in that order, 28.1% and 51.1%.
Consider `CNS(=O)(=O)c1ccc2c(c1)C(=Cc1cccc(F)c1O)C(=O)N2` [10734/D08], for which, on PDGF-R, the “PDGF Kinase %Inhibition” value is reported as 2.0%. The “Biochem EGFR %Inhibition” value at EGFR was -13.7%.
The like results for `CNS(=O)(=O)c1ccc2c(c1)C(=Cc1ccc(O)c(Br)c1)C(=O)N2` [10734/D09] were, in that order, 42.2% and 21.0%.
On the same counts, the results for `CNS(=O)(=O)c1ccc2c(c1)C(=Cc1ccc(C(C)(C)C)cc1)C(=O)N2` [10734/D10] are 9.9% and -4.4%.
On to `CNS(=O)(=O)c1ccc2c(c1)C(=Cc1ccc(Br)s1)C(=O)N2` [10734/D11], for which the “PDGF Kinase %Inhibition” value at PDGF-R is on record as 17.0%. The “Biochem EGFR %Inhibition” value on EGFR worked out at 14.6%.
The like results for `CCOc1cccc(C=C2C(=O)Nc3ccc(S(=O)(=O)Nc4ccc(C(F)(F)F)cc4)cc32)c1O` [10734/E02] were, in that order, 50.1% and -10.8%.
As to `O=C1Nc2ccc(S(=O)(=O)Nc3ccc(C(F)(F)F)cc3)cc2C1=Cc1cc(Cl)cc(Cl)c1O` [10734/E03], the “PDGF Kinase %Inhibition” value on PDGF-R is 27.2%. The “Biochem EGFR %Inhibition” value at EGFR is 55.0%.
